The values below come from US9277697B2, “Compositions and methods for anti-transpiration in plants” (Innovation Hammer, LLC, priority 2004, dated 2016).

In one test the test system is pectic cell. In words: Penetration and integration of saccharides.
For the next test, the system named is Rice, Lantana, Cabbage. Description: Yield with iron-Mac formulations versus component controls, all plant types. To be noted: for all plant types; 12 ppm Fe—Na2EDTA, 50 mM (NH4)2SO4. In kind it is in vivo. How it is done:
(§1) Dilute the mixture in an appropriate volume of water. Mix until the compounds are dissolved. Spray the resulting formulation on the plant foliage (e.g. New Guinea Impatiens) so that the foliage glistens. Allow a day for leaf uptake. The following results are of growth promotion using iron-Mac formulations of the invention versus conventionally cultured controls and with identical quantities of each of the components as separate controls.

In another test the test system is Lantana. Description: Growth promotion with iron-Mac formulations versus component controls. Format: in vivo. The settings on record: 12 ppm iron-Mac, 12 ppm Fe—Na2EDTA, 50 mM (NH4)2SO4. How it is done:
as §1

In the next test the test system is Rice. Described as above. To be noted: 12 ppm iron-Mac, 12 ppm Fe—Na2EDTA, 50 mM (NH4)2SO4. Format: in vivo. How it is done: as §1
For the next test, the system named is Cabbage. The description is as above. In kind it is in vivo. To be noted: 12 ppm iron-Mac, 12 ppm Fe—Na2EDTA, 50 mM (NH4)2SO4. How it is done:
as §1

The test system of a further test is weeds. In words: Weed kill by tank-mixes of saccharides, herbicide and ammonium sulfate. The settings on record: 1 lb/acre glyphosate; additive 1:1 methyl glucosides to organic ammonium sulfates. In kind it is in vivo. From the text: The inherent benefit of the reduction of productivity observed by surface coatings was exploited by utilizing their weakening effects as additives to enhance weed kill of pesticides. In sets of replicated trials, weeds were given tank-mixes with saccharides, herbicides, and ammonium sulfate fertilizer. Perhaps the most widely used herbicide, N-phosphonomethylglycine (PO(OH)2CH2.2NHCH2COOH), is commonly referred to as glyphosate, and is most abundantly found formulated as a water-soluble mono-isopropylamine (IPA) salt or sodium salt, hereinafter referred to as glyphosate, meant to include salts, thereof. The preferred formulation of the present invention is a blend of 4 lbs./acre to 5 lbs./acre glyphosate; 10 lbs./acre to 100 lbs./acre of 60% to 100% methyl glucosides in a 1:1 to 3:1 blend with ammonium sulfate; and with optional surfactant. After foliar application, inhibitory methods yielded approximately 50% to 85% improved response of weeds to herbicide and additives over positive controls. […] An additional benefit is the reversal of the weakening effect of treatments to plants that have been genetically engineered for herbicide resistance. After treatment with a tank mix of herbicide and Series 1 components, a Series 2 formulation of Ca^2+-chelators may be sprayed over a Series 1 treatment once the herbicide has killed its targeted weeds. […]

As to `CCCCCCCCCCCCCCO[C@@H]1O[C@H](CO)[C@@H](O[C@@H]2O[C@@H](CO)[C@H](O)[C@@H](O)[C@@H]2O)[C@H](O)[C@H]1O` (stereo in doubt) [tetradecylmaltoside], the penetration and integration result with pectic cell was “neither penetrate nor integrate”.

On to `N.N.O=S(=O)(O)O` [(NH4)2SO4], for which the yield reduction in the test on Rice, Lantana, Cabbage is listed as 5% reduction. The “Result (growth promotion)” value in the test on Lantana, in the test on Rice and with Cabbage was “retarded” throughout.

For the compound `O=C(O)CNCP(=O)(O)O` [glyphosate, N-phosphonomethylglycine], in the test with weeds, the lethal dose response is reported as 100%.

As for `CC(=O)OC[C@H]1OC(OC(C)=O)[C@H](OC(C)=O)[C@@H](OC(C)=O)[C@H]1OC(C)=O` (some centres unmarked) [pentaace tylgalactopyranose], the penetration and integration result in the test with pectic cell is given as “neither penetrate nor integrate”.

On to `CC(=O)OC[C@H]1OC(OC(C)=O)[C@H](OC(C)=O)[C@@H](OC(C)=O)[C@@H]1OC(C)=O` (some centres unmarked) [pentaace tylglucopyranose], for which, in the test with pectic cell, the penetration and integration entry is “neither penetrate nor integrate”.

As for `CC(=O)OC[C@H]1OC(OC(C)=O)[C@@H](OC(C)=O)[C@@H](OC(C)=O)[C@@H]1OC(C)=O` (some centres unmarked) [pentaacetylmanno-pyranose], the penetration and integration result in the test on pectic cell is “neither penetrate nor integrate”.

`CC(=O)OC[C@H]1OC(Oc2ccccc2)[C@H](OC(C)=O)[C@@H](OC(C)=O)[C@@H]1OC(C)=O` (some centres unmarked) [phenyltetraacetylglucoside]: in the test with pectic cell, the penetration and integration entry is given as “neither penetrate nor integrate”.

Turning to Fe—Na2EDTA, the yield reduction with Rice, Lantana, Cabbage stood at 5% reduction. Further, the “Result (growth promotion)” value in the test on Lantana, with Rice and in the test with Cabbage was “phytotoxic” each time.
